Counter-ions that a name gives are not always drawn. Like-named read-outs stand apart in the source and are kept apart here.
Tests used:
[1] = test system: lymphocytic leukemia P388/0; assay: Lymphocytic Leukemia P388/0 Test; type: in vivo, mouse (CD2-F1); parameters: LD20: unit: mg/kg; conditions: ip days 1, 5, 9; for LD20: doses on a mg/kg basis; for T/C × 100% (Excluding 30 Day Survivors): median survival time treated/control, at the optimal dose of the compound (Table I), active if ≥120%
From the text: (§1) Methods for evaluating the antitumor activity of these compounds are essentially those used in the Tumor Panel by the Developmental Therapeutics Program, Division of Cancer Treatment, National Cancer Institute, A. Goldin, et al., Methods in Cancer Research, Vol. XVI, p.165, Academic Press (1979). Some modifications, in dose level and schedule have been made to increase the testing efficiency.
(§2) CD2-F1 mice, of the same sex, weighing 20±3 g are used for this test. Control and test animals are injected intraperitoneally with a suspension of ~10^6 viable P388/0 tumor cells on day 0. In each test, several dose levels which bracket the LD20 of the compound are evaluated; each dose level group contains six animals. The test compounds are prepared either in physiologic saline containing 0.05% Tween 80 or distilled water containing 5% dextrose and are administered intraperitoneally on days 1, 5, and 9 relative to tumor implant. Doses are on a mg/kg basis according to individual animals' body weights. The day of death for each animal is recorded, the median identified for each group and the ratios of median survival time for treated (T)/control (C) Groups are calculated. The criterion for activity is T/C×100≥120%.

[2] = test system: Candida albicans; assay: Antifungal testing against Candida albicans (CN 1863); type: cell-based, Candida albicans (CN1863); conditions: Wellcotest sensitivity test agar plus 7% lysed horse blood
From the text: Antifungal testing against Candida albicans (CN 1863) was done with slight modifications using a combination of broth and agar dilution assays as outlined in Laboratory Handbook of Medical Mycology, Chapter 6, pages 441-446, M. R. McGinnis, Academic Press, New York, NY, 1980
Medium: Wellcotest ® sensitivity test agar plus 7% lysed horse blood.

[3] = Antibacterial screening against Mycoplasma smegmatis; type: cell-based
From the text: (§3) Antibacterial test against Mycoplasma smegmatis (S3264) and Streptococcus pyogenes (CN10) was done with slight modifications using standard agar dilution assays as outlined in Manual of Clinical Microbiology Second Ed., E. H. Lennette, E. H. Spaulding and J. P. Truant Eds., American Society for Microbiology, Washington, DC, 1974.

[4] = test system: Nippostrongylus brasiliensis; assay: Anthelmintic screening against Nippostrongylus brasiliensis; type: cell-based
From the text: Anthelmintic testing against Nippostrongylus brasiliensis was done using methods outlined in D. C. Jenkins, R. Armitage, and T. S. Carrington, Zeitschrift for Parasitenkunde 63, 261-269 (1980)

[5] = LD50 Tests; conditions: in vivo; IP single dose, CD-1 male mouse
From the text: |(IP single dose - CD-1 Male Mouse)

[6] = test system: lymphocytic leukemia L1210; assay: Lymphocytic Leukemia L1210 Test; type: in vivo, mouse (CD2-F1); conditions: median survival; ip days 1, 5, 9; dose: 3C 110, 4C 150 mg/kg; active if >125%
From the text: as §1
The protocol for this test is identical to that for P388/0, except that the number of L1210 cells implanted on day 0 is […]. The mouse CD2-F1 strain is used, and the criterion for activity is T/C×100 >125%.

[7] = test system: Lewis lung carcinoma; assay: Lewis Lung Carcinoma Test; type: in vivo, mouse (BD-F1); conditions: median survival, iv tumor cells; dosing days 1, 5, 9; dose: 3C 130, 4C 200 mg/kg; active if ≥140%
From the text: as §1
This tumor arose spontaneously in the lung of a C57B1/6 mouse and is maintained by subcutaneous passage in that strain. The solid tumor is excised aseptically and placed in sterile saline. Pieces of viable tumor tissue are minced finely with scissors and forced through a 200 mesh stainless steel screen to disaggregate the tumor cells into a suspension. 10^6 Viable cells are injected intravenously into the tail vein of BD-F1, mice of the same sex weighing 20±3 g. In each test, several dose levels which bracket the L20 for the compound are evaluated. Ten animals are included in each dose level grup, and twenty animals in the untreated control group. The test compounds are prepared and administered on days 1, 5, and 9 as in the P388/0 protocol. The day of death for each animal is recorded, the median identified for each group and the ratios of median survival time for treated (T)/control (C) groups are calculated. The criterion for activity is T/C×100≥140%.

[8] = test system: M5076 sarcoma; assay: M5076 Sarcoma Test; type: in vivo, mouse (B6C3-F1); conditions: survival; 110 mg/kg; ip days 1, 5, 9; active if ≥125%
From the text: as §1
This sarcoma arose as a solid tumor in the ovary of a C57Bl/6 mouse and was subsequently converted to the ascitic form for intraperitoneal use. The protocol for this test is identical with that for P388/0. The B6C3-F1mouse strain is used and the criterion for activity is T/C×100≥125%.

[9] = test system: Colon 38 carcinoma; assay: Colon 38 Carcinoma Test; type: in vivo, mouse (C57Bl/6); conditions: tumor weight, day 20; 150 mg/kg ip days 1, 5, 9; active if ≤42%
From the text: as §1
This chemically-induced tumor arose in a C57Bl/6 mouse and is maintained as a solid tumor in that mouse strain. The subcutaneously growing solid tumor is aseptically excised from passage mice and placed in sterile saline. The tumor is trimmed free of visible necrotic and connective tissue, then divided into 2-3 mm cubes. A cube is implanted subcutaneously in the ventral thoracic region with a sterile trochar on day 0. In each test several dose levels which bracket the LD20 for the compound are evaluated. Ten animals are included in each dose level group and thirty animals in the untreated control group. The test compounds are prepared either in physiologic saline containing 0.05% Tween 80 or distilled water containing 5% dextrose and are administered intraperitoneally on days 1, 5 and 9 after tumor implant. […] At day 20, the animals are sacrificed and the longest (L) and shortest (W) dimensions of each tumor measured with vernier calipers. Tumor weight is calculated from the formula [formula] […]

[10] = Lymphocytic Leukemia P388/0 Test; type: in vivo, mouse (CD2-F1); parameters: LD20: unit: mg/kg; conditions: mouse, in vivo; ip days 1, 5, 9; doses on a mg/kg basis; read-out: highest nontoxic dose where the LD20 was not determined (values in parentheses in LD20 column)
From the text: as §1, §2

[11] = test system: Herpes simplex 1/vero; assay: Herpes simplex 1/vero plaque inhibition screen; type: cell-based; conditions: plaque inhibition screen
From the text: The column headings labeled Score, Toxicity, and Zone of Inhibition refer to the plaque inhibition screen while the IC50 heading to the plaque reduction screen.

[12] = test system: Streptococcus pyogenes; assay: Antibacterial testing against Streptococcus pyogenes (CN10); type: cell-based; conditions: agar dilution
From the text: as §3

[13] = immature - free living stages, read-out: MIC

SMILES	LD20 [1]	T/C × 100% (Excluding 30 Day Survivors) [1]	MIC [3] [µg/mL]	LD50 [5] [mg/kg]	also measured
CC(CO)(CO)NCc1c2ccccc2cc2ccccc12.Cl [Example 1, 2-((9-Anthracenylmethyl)amino)-2-methyl-1,3-propanediol hydrochloride]	150	+130%	< 5	160	MIC [2]: > 50 µg/mL; MIC [4, 13]: ≥ 50 µg/mL
CC(CO)(CO)NCc1c2ccccc2c(Cl)c2ccccc12.Cl [Example 2A, 2-(((10-chloro-9-anthracenyl)methyl)amino)-2-methyl-1,3-propanediol hydrochloride]	556	+228%	10	250	MIC [4, 13]: ≥ 50 µg/mL
CSc1c2ccccc2c(CNC(C)(CO)CO)c2ccccc12.Cl [Example 3B, 2-methyl-2-(((10-methylthio-9-anthracenyl)methyl)amino)-1,3-propanediol hydrochloride]	120	+262%	–	100	–
CSc1c2ccccc2c(CNC(C)(CO)CO)c2ccccc12 [Example 3C, 2-Methyl-2-(((10-methylthio-9-anthracenyl)methyl)amino)-1,3-propanediolmethanesulfonate]	70	+227%	–	–	T/C × 100% Excluding 30 day Survivors [6]: +194%; T/C × 100% Excluding 60 day Survivors [7]: +145%; T/C × 100% [8]: +132%
CC(CO)(CO)NCc1c2ccccc2c(CCCl)c2ccccc12 [Example 4C, 2-(((10-(2-Chloroethyl)-9-anthracenyl)methyl)amino)-2-methyl-1,3-propanediol methanesulfonate]	130	+218%	–	–	T/C × 100% Excluding 30 day Survivors [6]: +217%; T/C × 100% Excluding 60 day Survivors [7]: +154%; T/C × 100% [9]: 38%
Cc1c2ccccc2c(CNC(C)(CO)CO)c2ccccc12 [Example 7, 2-methyl-2-(((10-methyl-9-anthracenyl)methyl)amino)-1,3-propanediol hydrochloride.1/2H2 O]	140	+160%	–	–	MIC [4]: 50 µg/mL
CC(CO)(CO)NCc1c2cccc(Cl)c2cc2c(Cl)cccc12.Cl [Example 10B, 2-(((4,5-dichloro-9-anthracenyl)methyl)amino)-2-methyl-1,3-propanediol hydrochloride]	–	+204%	–	–	MTD [10]: 450 mg/kg; Zone of Inhibition [11]: 32
CC(CO)(CO)NCc1c2ccccc2cc2c(Cl)cccc12.Cl [Example 11B, 2-(((4-Chloro-9-anthracenyl)methyl)amino)-2-methyl-1,3-propanediol hydrochloride]	200	+215%	≤ 10	–	MIC [12]: ≤ 10 µg/mL
COc1c2ccccc2c(CNC(C)(CO)CO)c2ccccc12.Cl [Example 13B, 2-(((10-Methoxy-9-anthracenyl)methyl)amino)-2-methyl-1,3-propanediol hydrochloride]	120	+220%	≤ 10	–	Zone of Inhibition [11]: 40; MIC [12]: 100 µg/mL
CC(CO)(CO)NCc1c2ccccc2c(OCCO)c2ccccc12 [Example 25B, 2-(((10-(2-hydroxyethoxy)-9-anthracenyl)methyl)amino)-2-methyl-1,3-propanediol hydrochloride 1/2H2 O 1/10EtOH]	67	+300%	–	110	–
